Patent US20160297830A1, “NOVEL COMPOUNDS USEFUL FOR THE TREATMENT OF BACTERIAL INFECTIOUS DISEASES” (GALAPAGOS NV, priority 2013, published 2016)
pIC50: −log10 of the molar value. Values after ≈ are worked out from the molar mass of the structure shown. Read-outs that look alike come from different tables or passages of the source.

Experiments:
[1] = system: S. aureus Sa1 ATCC 13709; test: microbe, parasite or virus in culture; assay type: cell-based; details: Staphylococcus aureus
[2] = system: S. aureus Sa26 ATCC 25923; test: Antibacterial activity assay (MIC), S. aureus Sa26; assay type: cell-based; details: Staphylococcus aureus
[3] = system: S. aureus Sa4 NCTC 6571; test: Antibacterial activity assay (MIC), S. aureus Sa4; assay type: cell-based; details: Staphylococcus aureus
[4] = system: S. aureus Sa2 clinical strain NCIMB 41953, MRSA; test: microbe, parasite or virus in culture; assay type: cell-based; details: Staphylococcus aureus, read-out: MIC Sa2
[5] = system: H. influenza Hi3 ATCC 31517; test: organism not typed; assay type: cell-based; details: read-out: MIC Hi3
[6] = system: H. influenza Hi10 clinical strain; test: organism not typed; assay type: cell-based; details: read-out: MIC Hi10
[7] = system: H. influenza Hi47 clinical strain, Ampicillin Resistant; test: organism not typed; assay type: cell-based; details: read-out: MIC Hi47
[8] = system: H. influenza Hi106 ATCC 51907; test: organism not typed; assay type: cell-based; details: read-out: MIC Hi106
[9] = system: E. coli Ec1 ATCC 25922; test: Antibacterial activity assay (MIC), E. coli Ec1; assay type: cell-based; details: Escherichia coli
[10] = system: E. coli Ec50 efflux pump KO; test: microbe, parasite or virus in culture; assay type: cell-based; details: Escherichia coli, read-out: MIC Ec50 efflux pump KO
[11] = system: E. coli Ec113 efflux pump KO; test: microbe, parasite or virus in culture; assay type: cell-based; details: Escherichia coli, read-out: MIC Ec113 efflux pump KO
[12] = molecular target: DNA Polymerase IIIα (DnaE) from Staphylococcus aureus (Staphylococcus aureus, UniProt Q6GG04); test: biochemical
Chain of DNA Polymerase IIIα (DnaE) from Staphylococcus aureus (Q6GG04 1-1022): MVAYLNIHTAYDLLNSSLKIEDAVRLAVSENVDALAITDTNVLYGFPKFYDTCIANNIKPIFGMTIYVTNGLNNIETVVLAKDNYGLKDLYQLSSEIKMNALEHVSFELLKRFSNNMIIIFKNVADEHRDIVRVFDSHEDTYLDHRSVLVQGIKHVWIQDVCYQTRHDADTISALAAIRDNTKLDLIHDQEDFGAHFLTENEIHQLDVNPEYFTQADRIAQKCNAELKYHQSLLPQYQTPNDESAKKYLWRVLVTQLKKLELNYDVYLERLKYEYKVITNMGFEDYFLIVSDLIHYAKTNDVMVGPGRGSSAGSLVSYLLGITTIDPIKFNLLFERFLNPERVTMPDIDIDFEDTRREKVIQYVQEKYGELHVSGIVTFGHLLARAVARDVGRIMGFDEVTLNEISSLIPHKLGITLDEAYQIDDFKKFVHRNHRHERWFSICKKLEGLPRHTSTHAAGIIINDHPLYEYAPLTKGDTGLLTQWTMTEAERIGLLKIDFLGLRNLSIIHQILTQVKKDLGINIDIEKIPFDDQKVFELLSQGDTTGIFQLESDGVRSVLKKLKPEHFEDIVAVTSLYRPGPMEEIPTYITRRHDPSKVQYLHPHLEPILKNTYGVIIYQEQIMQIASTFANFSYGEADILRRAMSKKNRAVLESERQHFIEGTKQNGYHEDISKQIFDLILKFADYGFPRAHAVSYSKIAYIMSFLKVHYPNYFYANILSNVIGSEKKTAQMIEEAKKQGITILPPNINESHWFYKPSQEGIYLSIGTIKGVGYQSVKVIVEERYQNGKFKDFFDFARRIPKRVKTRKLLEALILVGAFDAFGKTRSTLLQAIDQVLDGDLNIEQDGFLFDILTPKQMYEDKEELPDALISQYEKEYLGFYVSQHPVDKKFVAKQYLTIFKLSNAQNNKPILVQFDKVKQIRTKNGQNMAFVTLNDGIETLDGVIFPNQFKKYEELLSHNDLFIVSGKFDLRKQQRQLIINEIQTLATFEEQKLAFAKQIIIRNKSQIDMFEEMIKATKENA

[13] = molecular target: DNA III Polymerase E (Escherichia coli, UniProt P10443); test: In vitro activity against DNA III Polymerase E, E. coli; assay type: biochemical
Chain of DNA III Polymerase E (P10443 whole entry): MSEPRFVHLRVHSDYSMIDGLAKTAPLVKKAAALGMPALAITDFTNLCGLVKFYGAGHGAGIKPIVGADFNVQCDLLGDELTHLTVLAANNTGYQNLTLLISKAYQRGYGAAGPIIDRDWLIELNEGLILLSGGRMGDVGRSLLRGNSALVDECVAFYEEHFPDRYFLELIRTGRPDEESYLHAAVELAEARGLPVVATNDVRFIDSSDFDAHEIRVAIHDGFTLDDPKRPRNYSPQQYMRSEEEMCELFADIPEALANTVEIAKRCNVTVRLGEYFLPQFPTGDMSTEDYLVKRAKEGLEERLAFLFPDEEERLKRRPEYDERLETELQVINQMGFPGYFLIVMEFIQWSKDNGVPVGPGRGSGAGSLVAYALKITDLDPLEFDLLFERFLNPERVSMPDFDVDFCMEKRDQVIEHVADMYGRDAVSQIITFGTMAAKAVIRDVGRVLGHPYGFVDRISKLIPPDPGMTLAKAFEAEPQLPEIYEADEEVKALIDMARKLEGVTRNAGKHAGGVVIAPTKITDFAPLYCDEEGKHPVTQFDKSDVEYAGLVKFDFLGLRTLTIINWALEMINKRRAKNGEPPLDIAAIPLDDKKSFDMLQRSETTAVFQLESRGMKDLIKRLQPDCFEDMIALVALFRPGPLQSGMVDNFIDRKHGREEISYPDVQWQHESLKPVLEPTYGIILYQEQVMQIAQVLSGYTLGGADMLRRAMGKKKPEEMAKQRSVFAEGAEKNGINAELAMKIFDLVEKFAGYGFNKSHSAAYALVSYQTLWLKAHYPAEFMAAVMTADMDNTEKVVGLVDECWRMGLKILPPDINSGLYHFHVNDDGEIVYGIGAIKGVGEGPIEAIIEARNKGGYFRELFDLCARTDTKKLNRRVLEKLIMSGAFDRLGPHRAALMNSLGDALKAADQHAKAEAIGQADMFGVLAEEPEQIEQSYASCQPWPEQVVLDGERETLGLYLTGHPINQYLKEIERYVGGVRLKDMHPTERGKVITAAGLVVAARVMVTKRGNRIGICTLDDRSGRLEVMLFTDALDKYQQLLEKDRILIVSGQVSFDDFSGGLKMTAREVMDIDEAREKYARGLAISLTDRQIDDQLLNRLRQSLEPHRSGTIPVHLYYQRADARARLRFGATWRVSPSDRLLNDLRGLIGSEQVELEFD
Description: A radioactive filterplate assay was used to assess inhibitory activity of compounds on DNA Polymerase IIIα. Five μL of a dilution series of compound, starting from 100 μM highest concentration, 1/5 dilution, was added to the wells of a 96 well plate. Recombinant enzyme was diluted to 0.47 μg/mL in a buffer containing 20 mM Tris pH7.5, 8 mM DTT, 10 mM MgOAc, 0.05% CHAPS and 10 μL thereof was added to the compound dilutions. The reaction was started with the addition of 10 μL substrate in the same buffer, containing activated calf thymus DNA (Sigma, D4522), dATP, dGTP, dCTP, dTTP (Invitrogen) and [α-33P]-dTTP (Perkin Elmer, NEG605H001) at a concentration of 62.5 μg/mL, 50 nM and 7.5 μCi/mL respectively. The mixture was incubated at 30° C. for 120 minutes and terminated by addition of phosphoric acid. Samples were transferred to filter plates and incorporated radioactivity was measured by the Topcount. Data were converted to percent inhibition with respect to positive and negative controls. IC50 values were calculated using Graph Prism™ software.

[14] = ATCC13709, S. aureus Sa1 ATCC 13709, sensitive strain, Mueller-Hinton Broth, 37° C., read-out: MIC Sa1
[15] = ATCC25923, read-out: MIC Sa26 + 10% SH, S. aureus Sa26 + 10% SH
[16] = ATCC25923, read-out: MIC Sa26 + 50% SH, S. aureus Sa26 + 50% SH
[17] = ATCC25923, S. aureus Sa26 ATCC 25923, sensitive strain, Mueller-Hinton Broth, 37° C., read-out: MIC Sa26
[18] = NCTC6571, S. aureus Sa4 NCTC 6571, sensitive strain, read-out: MIC Sa4
[19] = ATCC25922, E. coli Ec1 ATCC 25922, sensitive strain, read-out: MIC Ec1
[20] = DNA polymerase III, S. aureus, read-out: IC50 semiquantitative scoring, S. aureus
[21] = DNA polymerase III, E. coli, read-out: IC50 semiquantitative scoring, E. coli
[22] = ATCC25923, read-out: MIC Sa26 + 10% SH
[23] = ATCC25923, read-out: MIC Sa26 + 50% SH

SMILES	MIC [1, 14]	MIC [2, 15]	MIC [2, 16]	MIC [2, 17]	MIC [3, 18]	MIC [4]	MIC [5]	MIC [6]	MIC [7]	MIC [8]	MIC [9, 19]	MIC [10]	MIC [11]	pIC50 [12]	further results
COC[C@@H](O)[C@H]1OC(=O)[C@H](COC)[C@H]2C=C[C@H]3[C@H]4O[C@]2(/C(C)=C/[C@H]1C)[C@@H]3[C@H](O)[C@@H](C)[C@H]4OC(=O)c1ccoc1 [Compound 7, 8-O-Furane-3′-carbonylbaleomycin]	8 µg/mL (≈ 14.6 µM)	16 µg/mL	16 µg/mL	16 µg/mL (≈ 29.3 µM)	8 µg/mL (≈ 14.6 µM)	8 µg/mL (≈ 14.6 µM)	> 64 µg/mL	64 µg/mL (≈ 117 µM)	64 µg/mL (≈ 117 µM)	64 µg/mL (≈ 117 µM)	> 64 µg/mL	> 64 µg/mL	0.125 µg/mL (≈ 0.229 µM)	5.74 to 8.74	pIC50 [13]: 5.74 to 8.74
COC[C@@H]1[C@@H](O)[C@@H]2[C@H]3C=C[C@@H]4[C@@H](COC)C(=O)OC[C@H](C)/C=C(\C)[C@@]24O[C@H]3[C@@H]1OC(=O)c1ccc[nH]1 [Compound 22, 17,18-Dinor-8-O-1H-pyrrole-2′-carbonybranimycin]	4 µg/mL (≈ 7.97 µM)	4 µg/mL	8 µg/mL	4 µg/mL (≈ 7.97 µM)	2 µg/mL (≈ 3.99 µM)	4 µg/mL (≈ 7.97 µM)	> 64 µg/mL	> 64 µg/mL	> 64 µg/mL	> 64 µg/mL	> 64 µg/mL	> 64 µg/mL	8 µg/mL (≈ 15.9 µM)	5.70 to 8.70	pIC50 [13]: < 4.70
COC[C@@H]1[C@@H](O)[C@@H]2[C@H]3C=C[C@@H]4[C@@H](COC)C(=O)O[C@H]([C@H](O)COC)[C@H](C)/C=C(\C)[C@@]24O[C@H]3[C@@H]1OC(=O)c1ccoc1 [Compound 5, 8-O-Furane-3′-carbonylbranimycin]	2 µg/mL (≈ 3.47 µM)	2 µg/mL	4 µg/mL	4 µg/mL (≈ 6.94 µM)	2 µg/mL (≈ 3.47 µM)	2 µg/mL (≈ 3.47 µM)	> 64 µg/mL	> 64 µg/mL	> 64 µg/mL	> 64 µg/mL	> 64 µg/mL	> 64 µg/mL	–	–	pIC50 [12, 20]: 5.76 to 8.76; pIC50 [13, 21]: < 4.76
COCC[C@H]1OC(=O)[C@H](COC)[C@H]2C=C[C@H]3[C@H]4O[C@]2(/C(C)=C/[C@H]1C)[C@@H]3[C@H](O)[C@@H](COC)[C@H]4OC(=O)c1ccc[nH]1 [Compound 4, 17-Deoxy-8-O-1H-pyrrole-2′-carbonylbranimycin]	4 µg/mL (≈ 7.15 µM)	4 µg/mL	8 µg/mL	4 µg/mL (≈ 7.15 µM)	2 µg/mL (≈ 3.57 µM)	4 µg/mL (≈ 7.15 µM)	> 64 µg/mL	> 64 µg/mL	–	–	> 64 µg/mL	> 64 µg/mL	4 µg/mL (≈ 7.15 µM)	5.75 to 8.75	pIC50 [13]: < 4.75
COC[C@@H]1[C@@H](O)[C@@H]2[C@H]3C=C[C@@H]4[C@@H](COC)C(=O)O[C@H]([C@H](O)COC)[C@H](C)/C=C(\C)[C@@]24O[C@H]3[C@@H]1OC(=O)c1ccc(C)[nH]1 [Compound 6, 8-O-5-Methyl-1H-pyrrole-2′-carbonylbranimycin]	–	–	–	–	–	64 µg/mL (≈ 109 µM)	> 64 µg/mL	> 64 µg/mL	> 64 µg/mL	> 64 µg/mL	–	–	8 µg/mL (≈ 13.6 µM)	5.77 to 8.77	MIC ([1]; ATCC13709, read-out: MIC Sa1): > 64 µg/mL; MIC ([2]; ATCC25923, read-out: MIC Sa26): > 64 µg/mL; MIC [2, 22]: > 64 µg/mL; MIC [2, 23]: > 64 µg/mL; MIC ([3]; NCTC6571, read-out: MIC Sa4): > 64 µg/mL; MIC ([9]; ATCC25922, read-out: MIC Ec1): > 64 µg/mL; pIC50 [13, 21]: < 4.77
COC[C@@H](O)[C@H]1OC(=O)[C@H](COC)[C@H]2C=C[C@H]3[C@H]4O[C@]2(/C(C)=C/[C@H]1C)[C@@H]3[C@H](O)[C@@H](C)[C@H]4OC(=O)c1cc(F)c[nH]1 [Compound 23, 8-O-4-Fluoro-1H-pyrrole-2′-carbonylbaleomycin]	–	–	–	–	–	4 µg/mL (≈ 7.1 µM)	> 64 µg/mL	64 µg/mL (≈ 114 µM)	64 µg/mL (≈ 114 µM)	64 µg/mL (≈ 114 µM)	–	–	0.12 µg/mL (≈ 0.213 µM)	5.75 to 8.75	MIC ([1]; ATCC13709, read-out: MIC Sa1): 1 µg/mL (≈ 1.77 µM); MIC ([2]; ATCC25923, read-out: MIC Sa26): 1 µg/mL (≈ 1.77 µM); MIC [2, 22]: 2 µg/mL; MIC [2, 23]: 4 µg/mL; MIC ([3]; NCTC6571, read-out: MIC Sa4): 1 µg/mL (≈ 1.77 µM); MIC ([9]; ATCC25922, read-out: MIC Ec1): > 64 µg/mL; pIC50 [13, 21]: 4.75 to 5.75
COCC(=NOC(C)=O)[C@H]1OC(=O)[C@H](COC)[C@H]2C=C[C@H]3[C@H]4O[C@]2(/C(C)=C/[C@H]1C)[C@@H]3[C@H](O)[C@@H](COC)[C@H]4OC(=O)c1ccc[nH]1 [Compound 29, 18-Acetylimino-18-deoxy-8-O-1H-pyrrole-2′-carbonylbranimycin]	0.5 µg/mL (≈ 0.793 µM)	1 µg/mL	2 µg/mL	1 µg/mL (≈ 1.59 µM)	0.5 µg/mL (≈ 0.793 µM)	0.5 µg/mL (≈ 0.793 µM)	> 64 µg/mL	> 64 µg/mL	64 µg/mL (≈ 101 µM)	64 µg/mL (≈ 101 µM)	> 64 µg/mL	32 µg/mL (≈ 50.7 µM)	0.5 µg/mL (≈ 0.793 µM)	5.80 to 8.80	–
COC[C@@H]1[C@@H](O)[C@@H]2[C@H]3C=C[C@@H]4[C@@H](COC)C(=O)O[C@H]([C@H](O)COC)[C@H](C)/C=C(\C)[C@@]24O[C@H]3[C@@H]1OC(=O)c1cc(C)n[nH]1 [Compound 39, 8-O-5-Methyl-1H-Pyrazole-3′-carbonylbranimycin]	> 64 µg/mL	> 64 µg/mL	> 64 µg/mL	> 64 µg/mL	> 64 µg/mL	> 64 µg/mL	> 64 µg/mL	> 64 µg/mL	> 64 µg/mL	> 64 µg/mL	> 64 µg/mL	> 64 µg/mL	> 64 µg/mL	4.77 to 5.77	–
COC[C@@H]1[C@@H](O)[C@@H]2[C@H]3C=C[C@@H]4[C@@H](COC)C(=O)O[C@H]([C@H](O)COC)[C@H](C)/C=C(\C)[C@@]24O[C@H]3[C@@H]1OC(=O)c1cc(Br)c[nH]1 [Compound 32, 8-O-4-Bromo-1H-pyrrole-2′-carbonylbranimycin]	4 µg/mL (≈ 6.11 µM)	16 µg/mL	64 µg/mL	16 µg/mL (≈ 24.4 µM)	8 µg/mL (≈ 12.2 µM)	4 µg/mL (≈ 6.11 µM)	> 64 µg/mL	> 64 µg/mL	> 64 µg/mL	> 64 µg/mL	> 64 µg/mL	> 64 µg/mL	64 µg/mL (≈ 97.8 µM)	5.82 to 8.82	–
COC[C@@H]1[C@@H](O)[C@@H]2[C@H]3C=C[C@@H]4[C@@H](COC)C(=O)O[C@H]([C@H](O)COC)[C@H](C)/C=C(\C)[C@@]24O[C@H]3[C@@H]1OC(=O)c1cc(Br)c(Br)[nH]1 [Compound 34, 8-O-4,5-Dibromo-1H-pyrrole-2′-carbonylbranimycin]	64 µg/mL (≈ 87.3 µM)	> 64 µg/mL	> 64 µg/mL	64 µg/mL (≈ 87.3 µM)	32 µg/mL (≈ 43.6 µM)	64 µg/mL (≈ 87.3 µM)	> 64 µg/mL	> 64 µg/mL	16 µg/mL (≈ 21.8 µM)	> 64 µg/mL	> 64 µg/mL	> 64 µg/mL	64 µg/mL (≈ 87.3 µM)	–	pIC50 [12, 20]: 4.87 to 5.87
COC[C@@H]1[C@@H](O)[C@@H]2[C@H]3C=C[C@@H]4[C@@H](COC)C(=O)O[C@H]([C@H](O)COC)[C@H](C)/C=C(\C)[C@@]24O[C@H]3[C@@H]1OC(=O)c1cc(Br)c(Br)o1 [Compound 36, 8-O-4,5-Dibromofurane-2′-carbonylbranimycin]	64 µg/mL (≈ 87.1 µM)	> 64 µg/mL	> 64 µg/mL	> 64 µg/mL	32 µg/mL (≈ 43.6 µM)	64 µg/mL (≈ 87.1 µM)	> 64 µg/mL	> 64 µg/mL	> 64 µg/mL	> 64 µg/mL	> 64 µg/mL	> 64 µg/mL	64 µg/mL (≈ 87.1 µM)	–	pIC50 [12, 20]: 5.87 to 8.87
